Test results as given in patent US10611772B2, “Crystalline form of Ribociclib succinate” (Apotex Inc., priority 2018, dated 2020).

Key:
[1] = Comparative intrinsic dissolution testing (Wood apparatus); assay type: physicochemical; conditions: 400 mg sample compressed at 1.5 metric tons for 1 minute, 900 mL 0.01 N HCl buffer, 75 rpm
Description: Intrinsic dissolution rate (IDR) measurements were performed using a Wood apparatus. Samples were prepared by compressing 400 mg sample at 1.5 metric tons for 1 minute. A dissolution medium consisting of 900 mL 0.01 N HCl buffer, and rotation speed of 75 rpm, was used for each experiment.

[2] = cited from earlier work; for Hygroscopicity: as reported in the prior art or the CHMP report
[3] = CHMP Assessment Report for KISQALI; anhydrous form; cited from earlier work

Intrinsic Dissolution Rate [1]	Structure (SMILES)	Form conversion upon exposure to high humidity levels ([2]; WO 2012/064805 A1)	Hygroscopicity [2]	BCS Class [3]	Solubility (BCS assessment) [3]
1.9520 mg min^−1 cm^−2	CN(C)C(=O)c1cc2cnc(Nc3ccc(N4CCNCC4)cn3)nc2n1C1CCCC1.O=C(O)CCC(=O)O [Ribociclib succinate non-hydrate form]	converts to the hydrate form	hygroscopic		
	CN(C)C(=O)c1cc2cnc(Nc3ccc(N4CCNCC4)cn3)nc2n1C1CCCC1 [Ribociclib succinate, 7-cyclopentyl-N,N-dimethyl-2-{[5-(piperazin-1-yl)pyridin-2-yl]amino}-7H-pyrrolo[2,3-d]pyrimidine-6-carboxamide]		exhibits hygroscopicity	Class IV	low solubility
